Drawing on patent publication US20250115598A1 (Anaxis Pharma Pty Ltd, priority 2021, published 2025), this text covers Kd, DC50 and IC50 for eleven compounds.

Molecules are shown by their SMILES. Where only a bound is given, the exact number is not on record here.

Experiment [1] has as its target human MLKL (full length) (Homo sapiens (Human), UniProt Q8NB16). Briefly: KINOMEscan binding assay, human MLKL (full length). As to conditions: hMLKL, Table 25; read-out: MLKL (KD). The gist of the method:
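Assay principle: test compound competes with immobilized bead ligand for kinase; kinase retained, then eluted, is counted by qPCR. Conditions were 1% DMSO final with 11 compound concentrations in 3-fold steps, 30,000 nM top for most. The Hill equation with slope −1 gave Kd.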

The target in experiment [2] is endogenous MLKL in U937 (Homo sapiens (Human), UniProt Q8NB16). Briefly: Degradation assay: endogenous MLKL in U937 (western blot). Particulars: U937, 24 h incubation, read-out: Degradation of endogenous MLKL in U937 (DC50 cell-based assay). The procedure, abridged: (§1)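 Western blot band intensity of MLKL, adjusted to GAPDH loading and normalized to DMSO-only wells, gave percent degradation. Compound exposure lasted 24 h at final concentrations of 10–0.016 μM in 1:5 steps, in mouse dermal fibroblasts or human U937 cells.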
For orientation: In western blotting, separated proteins are transferred to a membrane and probed.

Experiment [3] addresses endogenous MLKL in MDF (Mus musculus (Mouse), UniProt Q9D2Y4). Kind of experiment: Degradation assay: endogenous MLKL in MDF (western blot). As to conditions: MDF cells, 24 h incubation with compound, MLKL adjusted for loading with GAPDH, normalized to DMSO only control, read-out: Degradation of endogenous MLKL in MDF (DC50 cell-based assay). The procedure, abridged:
as §1

Experiment [4] relates to Immortalised Mouse Dermal Fibroblasts (MDFs). Kind of experiment: Cellular assay: inhibition of TSI induced necroptosis, CellTitre-Glo viability. Particulars: Mus musculus, Fibroblast; MDF, 3 hours TSI cocktail, Table 27; read-out: Inhibition of TSI-induced necroptosis (IC50 cell-based assay) in MDF. The procedure, abridged: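 Necroptosis induced for 3 h with TSI: rhTNF 100 ng/ml, Smac mimetic 500 nM, caspase inhibitor IDN-6556 10 μM. Mouse dermal fibroblasts had received compound (36 μM top, ten three-fold steps) 30 min beforehand. ATP-based viability scaled between untreated and TSI-only wells; IC50 taken as 4-parameter curve inflection.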

endogenous MLKL in U937, sequence (Q8NB16 whole entry): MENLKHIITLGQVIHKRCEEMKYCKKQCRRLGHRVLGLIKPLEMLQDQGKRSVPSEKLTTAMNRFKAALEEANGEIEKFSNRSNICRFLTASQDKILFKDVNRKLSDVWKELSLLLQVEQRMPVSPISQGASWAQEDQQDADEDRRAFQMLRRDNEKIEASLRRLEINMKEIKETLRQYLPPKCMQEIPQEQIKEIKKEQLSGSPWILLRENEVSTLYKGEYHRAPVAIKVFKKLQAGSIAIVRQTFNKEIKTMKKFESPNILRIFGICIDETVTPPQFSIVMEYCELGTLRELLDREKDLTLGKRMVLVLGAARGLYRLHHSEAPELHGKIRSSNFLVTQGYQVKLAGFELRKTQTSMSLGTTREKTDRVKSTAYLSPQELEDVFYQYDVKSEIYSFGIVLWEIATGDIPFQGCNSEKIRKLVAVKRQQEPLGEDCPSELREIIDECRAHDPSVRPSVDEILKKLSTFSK
human MLKL (full length), sequence (Q8NB16 whole entry): as above
endogenous MLKL in MDF, sequence (Q9D2Y4 whole entry): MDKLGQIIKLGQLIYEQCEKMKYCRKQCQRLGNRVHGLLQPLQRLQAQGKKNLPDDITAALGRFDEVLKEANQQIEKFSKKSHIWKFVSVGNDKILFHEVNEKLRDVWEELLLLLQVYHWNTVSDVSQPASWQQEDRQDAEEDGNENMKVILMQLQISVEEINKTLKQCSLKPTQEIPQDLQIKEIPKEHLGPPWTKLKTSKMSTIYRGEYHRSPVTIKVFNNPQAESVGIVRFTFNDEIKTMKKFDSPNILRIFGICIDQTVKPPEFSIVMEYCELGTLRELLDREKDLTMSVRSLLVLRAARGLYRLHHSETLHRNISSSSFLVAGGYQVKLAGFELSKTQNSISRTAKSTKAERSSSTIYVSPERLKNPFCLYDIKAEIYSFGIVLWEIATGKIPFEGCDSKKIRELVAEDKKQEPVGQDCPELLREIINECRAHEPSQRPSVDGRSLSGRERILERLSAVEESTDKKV

In the case of `Cn1nc(-c2ccc(NS(=O)(=O)C(F)F)c(F)c2)c2c(N)ncc(-c3cnn(C4CCN(Cc5cccc(CNc6cccc7c6C(=O)N(C6CCC(=O)NC6=O)C7=O)c5)CC4)c3)c21` (centres unmarked) [Compound 1122, N-(4-{4-amino-7-[1-(1-{[3-({[2-(2,6-dioxopiperidin-3-yl)-1,3-dioxo-2,3-dihydro-1H-isoindol-4-yl]amino}methyl)phenyl]methyl}piperidin-4-yl)-1H-pyrazol-4-yl]-1-methyl-1H-pyrazolo[4,3-c]pyridin-3-yl}-2-fluorophenyl)-1,1-difluoromethanesulfonamide], the Kd in experiment [1] is less than 0.01 µM. Also, the DC50 was less than 1 µM in experiment [2] and 1 to 10 µM in experiment [3]. In experiment [4], the IC50 is 1 to 10 µM.

For `C[C@H](Oc1cc(-c2nn(C)c3c(-c4cnn(C5CCN(C(=O)CC6CN(c7cccc8c7C(=O)N(C7CCC(=O)NC7=O)C8=O)CCO6)CC5)c4)cnc(N)c23)ccc1NS(=O)(=O)C(F)F)c1ccc(F)cc1` (stereo partly drawn) [Compound 1081, N-[4-(4-amino-7-{1-[1-(2-{4-[2-(2,6-dioxopiperidin-3-yl)-1,3-dioxo-2,3-dihydro-1H-isoindol-4-yl]morpholin-2-yl}acetyl)piperidin-4-yl]-1H-pyrazol-4-yl}-1-methyl-1H-pyrazolo[4,3-c]pyridin-3-yl)-2-[(1S)-1-(4-fluorophenyl)ethoxy]phenyl]-1,1-difluoromethanesulfonamide], the Kd in experiment [1] is less than 0.01 µM. Moreover, the DC50 in experiment [2] and in experiment [3] was less than 1 µM in each case. In addition, in experiment [4], the IC50 was less than 1 µM.

With `C[C@H](Oc1cc(-c2nn(C)c3c(-c4cnn(C5CCN(C(=O)C6CCC(c7cccc8c7C(=O)N(C7CCC(=O)NC7=O)C8=O)CC6)CC5)c4)cnc(N)c23)ccc1NS(=O)(=O)C(F)F)c1ccc(F)cc1` (stereo partly drawn) [Compound 1125, N-(4-{4-amino-7-[1-(1-{4-[2-(2,6-dioxopiperidin-3-yl)-1,3-dioxo-2,3-dihydro-1H-isoindol-4-yl]cyclohexane-carbonyl}piperidin-4-yl)-1H-pyrazol-4-yl]-1-methyl-1H-pyrazolo[4,3-c]pyridin-3-yl}-2-[(1S)-1-(4-fluorophenyl)ethoxy]phenyl)-1,1-difluoromethanesulfonamide], in experiment [1], the Kd was 0.01 to 1 µM. Besides, the DC50 in experiment [2] and in experiment [3] was less than 1 µM in each case. Moreover, the IC50 in experiment [4] was less than 1 µM.

Take `C[C@H](Oc1cc(-c2nn(C)c3c(-c4cnn(C5CCC(C(=O)N6CCC(c7cccc8c7C(=O)N(C7CCC(=O)NC7=O)C8=O)CC6)CC5)c4)cnc(N)c23)ccc1NS(=O)(=O)C(F)F)c1ccc(F)cc1` (some centres unmarked) [Compound 1127]: the Kd in experiment [1] lay within 0.01 to 1 µM. Besides, the DC50 in experiment [2] and in experiment [3] was less than 1 µM in each case. The IC50 in experiment [4] was less than 1 µM.

In the case of `C[C@H](Oc1cc(-c2nn(C)c3c(-c4cnn(C5CCN(C(=O)C6CCC(c7ccc8c(c7)C(=O)N(C7CCC(=O)NC7=O)C8=O)CC6)CC5)c4)cnc(N)c23)ccc1NS(=O)(=O)C(F)F)c1ccc(F)cc1` (stereo partly drawn) [Compound 1126, N-(4-{4-amino-7-[1-(1-{4-[2-(2,6-dioxopiperidin-3-yl)-1,3-dioxo-2,3-dihydro-1H-isoindol-5-yl]cyclohexanecarbonyl}piperidin-4-yl)-1H-pyrazol-4-yl]-1-methyl-1H-pyrazolo[4,3-c]pyridin-3-yl}-2-[(1S)-1-(4-fluorophenyl)ethoxy]phenyl)-1,1-difluoromethanesulfonamide], the dissociation constant Kd in experiment [1] is less than 0.01 µM. Besides, the half-maximal degradation concentration (DC50) in experiment [2] and in experiment [3] was less than 1 µM each time. Moreover, the IC50 in experiment [4] was less than 1 µM.

As for `C[C@H](Oc1cc(-c2nn(C)c3c(-c4cnn(C5CCN(C(=O)C6CN(c7cccc8c7C(=O)N(C7CCC(=O)NC7=O)C8=O)C6)CC5)c4)cnc(N)c23)ccc1NS(=O)(=O)C(F)F)c1ccc(F)cc1` (stereo partly drawn) [Compound 1051, N-(4-{4-amino-7-[1-(1-{1-[2-(2,6-dioxopiperidin-3-yl)-1,3-dioxo-2,3-dihydro-1H-isoindol-4-yl]azetidine-3-carbonyl}piperidin-4-yl)-1H-pyrazol-4-yl]-1-methyl-1H-pyrazolo[4,3-c]pyridin-3-yl}-2-[(1S)-1-(4-fluorophenyl)ethoxy]phenyl)-1,1-difluoromethane-sulfonamide], the Kd in experiment [1] lay in the range of 0.01 to 1 µM. The figures for the DC50 in experiment [2] and in experiment [3] were 1 to 10 µM and less than 1 µM, respectively. Besides, the IC50 in experiment [4] was in the range of 1 to 10 µM.

Consider `C[C@H](Oc1cc(-c2nn(C)c3c(-c4cnn(C5CCN(C(=O)[C@H]6C[C@H]6C6CCN(c7cccc8c7C(=O)N(C7CCC(=O)NC7=O)C8=O)CC6)CC5)c4)cnc(N)c23)ccc1NS(=O)(=O)C(F)F)c1ccc(F)cc1` (stereo in doubt) [Compound 1129, N-[4-(4-amino-7-{1-[1-(2-{1-[2-(2,6-dioxopiperidin-3-yl)-1,3-dioxo-2,3-dihydro-1H-isoindol-4-yl]piperidin-4-yl}-(cis)-cyclopropanecarbonyl)piperidin-4-yl]-1H-pyrazol-4-yl}-1-methyl-1H-pyrazolo[4,3-c]pyridin-3-yl)-2-[(1S)-1-(4-fluorophenyl)ethoxy]phenyl]-1,1-difluoromethane-sulfonamide], for which the Kd in experiment [1] lay within 0.01 to 1 µM. The DC50 in experiment [2] and in experiment [3] was less than 1 µM in each case. The IC50 in experiment [4] was less than 1 µM.

For the compound `C[C@H](Oc1cc(-c2nn(C)c3c(-c4cnn(C5CCN(CCCN6CCN(C(=O)COc7ccc8c(c7)C(=O)N(C7CCC(=O)NC7=O)C8=O)CC6)CC5)c4)cnc(N)c23)ccc1NS(=O)(=O)C(F)F)c1ccc(F)cc1` (stereo partly drawn) [Compound 1091, N-(4-{4-amino-7-[1-(1-{3-[4-(2-{[2-(2,6-dioxopiperidin-3-yl)-1,3-dioxo-2,3-dihydro-1H-isoindol-5-yl]oxy}acetyl)piperazin-1-yl]propyl}piperidin-4-yl)-1H-pyrazol-4-yl]-1-methyl-1H-pyrazolo[4,3-c]pyridin-3-yl}-2-[(1S)-1-(4-fluorophenyl)ethoxy]phenyl)-1,1-difluoromethanesulfonamide], the Kd in experiment [1] was less than 0.01 µM. Besides, the DC50 in experiment [2] and in experiment [3] was less than 1 µM throughout. In addition, in experiment [4], the IC50 was less than 1 µM.

As to `Cc1ncsc1-c1ccc(CNC(=O)[C@@H]2C[C@@H](O)CN2C(=O)[C@@H](NC(=O)C2(F)CC2)C(C)(C)C)c(OCCCCCn2cc(-c3cnc(N)c4c(-c5ccc(NS(=O)(=O)C(F)F)c(O[C@@H](C)c6ccc(F)cc6)c5)nn(C)c34)cn2)c1` [Compound 1068, (2S,4R)-N-[(2-{[5-(4-{4-amino-3-[4-(difluoromethanesulfonamido)-3-[(1S)-1-(4-fluorophenyl)ethoxy]phenyl]-1-methyl-1H-pyrazolo[4,3-c]pyridin-7-yl}-1H-pyrazol-1-yl)pentyl]oxy}-4-(4-methyl-1,3-thiazol-5-yl)phenyl)methyl]-1-[(2S)-2-[(1-fluorocyclopropyl)formamido]-3,3-dimethylbutanoyl]-4-hydroxypyrrolidine-2-carboxamide], in experiment [1], the Kd fell in the range of 0.01 to 1 µM. In addition, the DC50 in experiment [2] is 1 to 10 µM; in experiment [3], less than 1 µM. In addition, the IC50 in experiment [4] fell in the range of 1 to 10 µM.

For the compound `C[C@H](Oc1cc(-c2nn(C)c3c(-c4cnn(C5CCN(CC6CCN(c7cccc8c7C(=O)N(C7CCC(=O)NC7=O)C8=O)C6)CC5)c4)cnc(N)c23)ccc1NS(=O)(=O)C(F)F)c1ccc(F)cc1` (stereo partly drawn) [Compound 1083, N-[4-(4-amino-7-{1-[1-({1-[2-(2,6-dioxopiperidin-3-yl)-1,3-dioxo-2,3-dihydro-1H-isoindol-4-yl]pyrrolidin-3-yl}methyl)piperidin-4-yl]-1H-pyrazol-4-yl}-1-methyl-1H-pyrazolo[4,3-c]pyridin-3-yl}-2-[(1S)-1-(4-fluorophenyl)ethoxy]phenyl]-1,1-difluoromethanesulfonamide], in experiment [1], the Kd is less than 0.01 µM. Further, the DC50 in experiment [2] and in experiment [3] was less than 1 µM each time. Also, the IC50 in experiment [4] is less than 1 µM.

Consider `C[C@H](Oc1cc(-c2nn(C)c3c(-c4cnn(C5CCN(CCCC6CCN(c7cccc8c7C(=O)N(C7CCC(=O)NC7=O)C8=O)CC6)CC5)c4)cnc(N)c23)ccc1NS(=O)(=O)C(F)F)c1ccc(F)cc1` (stereo partly drawn) [Compound 1078, N-[4-(4-amino-7-{1-[1-(3-{1-[2-(2,6-dioxopiperidin-3-yl)-1,3-dioxo-2,3-dihydro-1H-isoindol-4-yl]piperidin-4-yl}propyl)piperidin-4-yl]-1H-pyrazol-4-yl}-1-methyl-1H-pyrazolo[4,3-c]pyridin-3-yl)-2-[(1S)-1-(4-fluorophenyl)ethoxy]phenyl]-1,1-difluoromethane-sulfonamide], for which the dissociation constant Kd in experiment [1] is less than 0.01 µM. The half-maximal degradation concentration (DC50) in experiment [2] and in experiment [3] was 1 to 10 µM in each case. Moreover, the IC50 in experiment [4] was less than 1 µM.

A word on the Kd: it is the free concentration of one partner at which half of the binding sites on the other are occupied at equilibrium, for simple one-to-one binding. Usually DC50 stands for the concentration at which degradation of the target reaches its halfway point. By IC50 is commonly meant the concentration that inhibits the measured activity by half.
